# Species on record: Rattus norvegicus
# Test: DrugMatrix - Regimen: Daily Repeat
# Format: toxicity, organism-based, Sprague-Dawley
# Design: regimen Daily Repeat, gender Male, age 6-8 weeks
# Conditions: in vivo, po, 83 mg/kg, route oral GAVAGE, dose level High, vehicle .5 % CMC; for ABSOLUTE BASOPHIL / ABSOLUTE EOSINOPHIL / ABSOLUTE LYMPHOCYTE / ABSOLUTE MONOCYTE / ABSOLUTE SEGMENTED NEUTROPHIL / BASOPHIL / EOSINOPHIL / ERYTHROCYTE COUNT / HEMATOCRIT / HEMOGLOBIN / LEUKOCYTE COUNT / LYMPHOCYTE / MEAN CORPUSCULAR HEMOGLOBIN / MEAN CORPUSCULAR HEMOGLOBIN CONCENTRATION / MEAN CORPUSCULAR VOLUME / MONOCYTE / NEUTROPHIL / NUCLEATED RED BLOOD CELLS / PLATELET COUNT: tissue Blood; for ALANINE AMINOTRANSFERASE / ALBUMIN / ALKALINE PHOSPHATASE / ASPARTATE AMINOTRANSFERASE / BLOOD UREA NITROGEN / CARBON DIOXIDE / CHLORIDE / CHOLESTEROL / CREATINE PHOSPHOKINASE / CREATININE / GLUCOSE / LACTATE DEHYDROGENASE / LIPASE / PHOSPHORUS / POTASSIUM / SODIUM / TOTAL BILIRUBIN / TOTAL PROTEIN / URIC ACID: tissue Plasma
smiles,measurement,setting,value
Nc1cc(N2CCCCC2)nc(N)[n+]1[O-] [MINOXIDIL],ABSOLUTE BASOPHIL,"72 h, time 3 day",0 CELLS/uL
same,ABSOLUTE EOSINOPHIL,"72 h, time 3 day",0 CELLS/uL
same,ABSOLUTE LYMPHOCYTE,"72 h, time 3 day",11593 CELLS/uL
same,ABSOLUTE MONOCYTE,"72 h, time 3 day",0 CELLS/uL
same,ABSOLUTE SEGMENTED NEUTROPHIL,"72 h, time 3 day",1707 CELLS/uL
same,BASOPHIL,"72 h, time 3 day",0%
same,EOSINOPHIL,"72 h, time 3 day",0%
same,ERYTHROCYTE COUNT,"72 h, time 3 day",4.83 x10E6/uL
same,HEMATOCRIT,"72 h, time 3 day",30.37%
same,HEMOGLOBIN,"72 h, time 3 day",12.7 G/DL
same,LEUKOCYTE COUNT,"72 h, time 3 day",13.3 x10E3/uL
same,LYMPHOCYTE,"72 h, time 3 day",87.67%
same,MEAN CORPUSCULAR HEMOGLOBIN,"72 h, time 3 day",26.3 pg
same,MEAN CORPUSCULAR HEMOGLOBIN CONCENTRATION,"72 h, time 3 day",41.83 G/DL
same,MEAN CORPUSCULAR VOLUME,"72 h, time 3 day",62.8 fL
same,MONOCYTE,"72 h, time 3 day",0%
same,NEUTROPHIL,"72 h, time 3 day",12.33%
same,NUCLEATED RED BLOOD CELLS,"72 h, time 3 day",0 /100WBC
same,PLATELET COUNT,"72 h, time 3 day",1119.33 x10E3/uL
same,ALANINE AMINOTRANSFERASE,"72 h, time 3 day",40.33 u/L
same,ALBUMIN,"72 h, time 3 day",4.27 G/DL
same,ALKALINE PHOSPHATASE,"72 h, time 3 day",346.33 u/L
same,ASPARTATE AMINOTRANSFERASE,"72 h, time 3 day",73.67 u/L
same,BLOOD UREA NITROGEN,"72 h, time 3 day",18.33 mg/dL
same,CARBON DIOXIDE,"72 h, time 3 day",30.33 mmol/L
same,CHLORIDE,"72 h, time 3 day",103.33 MEQ/L
same,CHOLESTEROL,"72 h, time 3 day",70.33 mg/dL
same,CREATINE PHOSPHOKINASE,"72 h, time 3 day",164 u/L
same,CREATININE,"72 h, time 3 day",0.15 mg/dL
same,GLUCOSE,"72 h, time 3 day",140 mg/dL
same,LACTATE DEHYDROGENASE,"72 h, time 3 day",144 u/L
same,LIPASE,"72 h, time 3 day",9.33 u/L
same,PHOSPHORUS,"72 h, time 3 day",12.47 mg/dL
same,POTASSIUM,"72 h, time 3 day",6.31 MEQ/L
same,SODIUM,"72 h, time 3 day",145.1 MEQ/L
same,TOTAL BILIRUBIN,"72 h, time 3 day",0.17 mg/dL
same,TOTAL PROTEIN,"72 h, time 3 day",5.67 G/DL
same,URIC ACID,"72 h, time 3 day",1.33 mg/dL
same,ABSOLUTE BASOPHIL,"120 h, time 5 day",0 CELLS/uL
same,ABSOLUTE EOSINOPHIL,"120 h, time 5 day",0 CELLS/uL
same,ABSOLUTE LYMPHOCYTE,"120 h, time 5 day",12306 CELLS/uL
same,ABSOLUTE MONOCYTE,"120 h, time 5 day",270 CELLS/uL
same,ABSOLUTE SEGMENTED NEUTROPHIL,"120 h, time 5 day",990.67 CELLS/uL
same,BASOPHIL,"120 h, time 5 day",0%
same,EOSINOPHIL,"120 h, time 5 day",0%
same,ERYTHROCYTE COUNT,"120 h, time 5 day",5.12 x10E6/uL
same,HEMATOCRIT,"120 h, time 5 day",32.97%
same,HEMOGLOBIN,"120 h, time 5 day",13.17 G/DL
same,LEUKOCYTE COUNT,"120 h, time 5 day",13.57 x10E3/uL
same,LYMPHOCYTE,"120 h, time 5 day",90.67%
same,MEAN CORPUSCULAR HEMOGLOBIN,"120 h, time 5 day",25.77 pg
same,MEAN CORPUSCULAR HEMOGLOBIN CONCENTRATION,"120 h, time 5 day",39.93 G/DL
same,MEAN CORPUSCULAR VOLUME,"120 h, time 5 day",64.53 fL
same,MONOCYTE,"120 h, time 5 day",2%
same,NEUTROPHIL,"120 h, time 5 day",7.33%
same,NUCLEATED RED BLOOD CELLS,"120 h, time 5 day",0.33 /100WBC
same,PLATELET COUNT,"120 h, time 5 day",1460 x10E3/uL
same,ALANINE AMINOTRANSFERASE,"120 h, time 5 day",52.33 u/L
same,ALBUMIN,"120 h, time 5 day",4.33 G/DL
same,ALKALINE PHOSPHATASE,"120 h, time 5 day",352.67 u/L
same,ASPARTATE AMINOTRANSFERASE,"120 h, time 5 day",78.67 u/L
same,BLOOD UREA NITROGEN,"120 h, time 5 day",18 mg/dL
same,CARBON DIOXIDE,"120 h, time 5 day",34.67 mmol/L
same,CHLORIDE,"120 h, time 5 day",100.67 MEQ/L
same,CHOLESTEROL,"120 h, time 5 day",77.33 mg/dL
same,CREATINE PHOSPHOKINASE,"120 h, time 5 day",322.67 u/L
same,CREATININE,"120 h, time 5 day",0.29 mg/dL
same,GLUCOSE,"120 h, time 5 day",137 mg/dL
same,LACTATE DEHYDROGENASE,"120 h, time 5 day",304 u/L
same,LIPASE,"120 h, time 5 day",11 u/L
same,PHOSPHORUS,"120 h, time 5 day",11.17 mg/dL
same,POTASSIUM,"120 h, time 5 day",6.32 MEQ/L
same,SODIUM,"120 h, time 5 day",143.43 MEQ/L
same,TOTAL BILIRUBIN,"120 h, time 5 day",0.23 mg/dL
same,TOTAL PROTEIN,"120 h, time 5 day",5.9 G/DL
same,URIC ACID,"120 h, time 5 day",1.43 mg/dL

# Source: ChEMBL document CHEMBL3885881, “DrugMatrix”
